Assay results published in patent US11801307B2, “Antibody-polymer-drug conjugates” (priority 2016, dated 2023).
“Also recorded” adds a separate entry of the source.

Key:
[1] = Blood pharmacokinetics of 125I-labeled conjugates; assay type: in vivo, male NOD SCID mice; conditions: i.v. 3.5 mg/kg single dose
Procedure: The conjugates were radioiodinated by the Iodogen method as previously described (Liu et al., 2009). 7-9 week-old healthy male NOD/SCID mice (n=3) were intravenously injected with ^125I labeled RTX, RTX-P-EPI or IgG-P-EPI conjugates (0.1 mg, 20 μCi per mouse), respectively. At predetermined intervals, blood samples (10 μl) were taken from the tail vein, and the radioactivity of each sample was measured with Gamma Counter (Packard).
The pharmacokinetic properties of ^125I labeled RTX, RTX-P-EPI and IgG-P-EPI were evaluated in male NOD SCID mice. Antibody was radiolabeled by ^125I and i.v. injected at 3.5 mg/kg (based on antibody for RTX, RTX-P-EPI, and IgG-P-EPI) single dose.

[2] = tested on: Raji cells; assay: Apoptosis induction in Raji cells, Annexin V/PI staining; assay type: cell-based, human; conditions: RTX alone
Procedure: Incubation time was 48 h.
Percentage of apoptotic cells was quantified by flow cytometry. All data are presented as mean±SD (n=3).
This raises the likelihood that this system will be efficient in the treatment of RTX-resistant disease.

[3] = tested on: Ramos cells; assay: In vitro cytotoxicity toward Ramos cells, CCK-8 assay; assay type: cell-based, human; conditions: 48 h
Procedure: The cytotoxicity of antibody and antibody-polymer-drug conjugates against Ramos cells was measured by CCK-8 assay (Dojindo). The cells were seeded in 96-well plates at the density of 10,000 cells (200 μl) per well in RMPI-1640 media containing 10% FBS. After 24 h, RTX, RTX-EPI RTX-P-EPI, mixture of RTX with P-EPI and IgG-P-EPI (0.3 mg/ml×15 μl for antibody) in medium was added and incubated at 37° C. for 48 h. The number of viable cells was estimated using CCK-8 kit according to the manufacturer's protocol. In brief, 50 μl 5× diluted CCK-8 solution was added and incubated at 37° C., 5% CO2 for 4 h, the absorbance was measured using a microplate reader at 450 nm (630 nm as reference). Untreated control cells were set as 100% viable.
The cytotoxicity of RTX-P-EPI against Ramos cells was first evaluated at the concentration of 0.15 μM (related to RTX). Unconjugated RTX, non-specific conjugate IgG-P-EPI and directly conjugated with free drug (RTX-EPI) were used as controls. The Ramos cells were incubated with the samples for 48 h and evaluated by CCK-8 assay (FIG. 6).
10^4 Ramos cells were seeded in each well of 96-well plates in 200 μl RPMI-1640 media containing 10% FBS. Different samples (0.3 mg/ml×15 μl) were added and incubated at 37° C. in a humidified atmosphere of 5% CO2 (v/v). After 48 h, the number of viable cells was estimated using CCK-8 kit at 450 nm (630 nm as reference). […]

[4] = tested on: low-grade NHL; conditions: disease progression or relapse after prior RTX; cited from earlier work
[5] = Biodistribution of 125I-labeled conjugates in mice bearing s.c. Ramos tumors; assay type: in vivo, male NOD SCID mice; conditions: 72 h after intravenous injection
Procedure: For biodistribution study, 7-9 week-old male NOD SCID mice bearing s.c. Ramos tumors received intravenous injection of ^125I labeled RTX, RTX-P-EPI, or IgG-P-EPI (0.1 mg, 20 μCi per mouse). At 72 and 96 h after administration, the mice were sacrificed. Various tissues (heart, liver, spleen, lung, kidney, stomach, intestine, muscle, bone, brain and tumor) were harvested, weighed, and counted for radioactivity with Gamma Counter (Packard). Uptake of the conjugate was calculated as the percentage of the injected dose per gram of tissue (% ID/g). Data are presented as mean±standard deviation (n=3).
The biodistribution of RTX, RTX-P-EPI and IgG-P-EPI labeled by ^125I in male NOD SCID mice bearing s.c. xenograft tumor model was also compared.

[6] = tested on: Ramos B-cell lymphoma tumors; conditions: i.v., 4 doses at 3-day intervals, 20 mg/kg RTX or equivalent (EPI 1.5 mg/kg)
Procedure: Ramos cells (5×10^6) in 200 μl of PBS were subcutaneously inoculated in the right flank of 7- to 9-wk-old male NOD SCID mice. Tumor size was measured with a caliper, and tumor volume was calculated according to the formula: Tumor volume (mm^3)=½×length×[…], where the length (mm) is the longest and the width (mm) is the shortest dimension of the tumor. When the average tumor size reached 150±50 mm^3, treatment was initiated (n=4-5). […] Body weight variation was computed by the equation: variation=(WDayn−WDay0)/WDay0×100%. […] Saline was used as non-treated control. […] The data are presented as mean±SD (n=4-5).
NOD SCID mice were subcutaneously implanted with Ramos cells (5×10^6 cells/200 μl saline) into the right flank. […] Saline was injected as control. […] Mice were treated with 4 doses at 3-day intervals.
In addition, body weight of the mice was closely recorded during and after treatment. […] Four-doses were administered on days 11, 14, 17 and 20.

[7] = free drug; cited from earlier work
[8] = tested on: A2780 human ovarian carcinoma xenografts; conditions: 5 mg/kg EPI equivalent, day 20, s.c. model; cited from earlier work
[9] = target: T1, CD20 (Homo sapiens, UniProt P11836); assay: RTX-Cy5 binding on the surface of Ramos cells, with and without RTX pre-blocking
T1 construct: host or cells: Ramos Burkitt's lymphoma cells
T1 sequence (P11836 1-297): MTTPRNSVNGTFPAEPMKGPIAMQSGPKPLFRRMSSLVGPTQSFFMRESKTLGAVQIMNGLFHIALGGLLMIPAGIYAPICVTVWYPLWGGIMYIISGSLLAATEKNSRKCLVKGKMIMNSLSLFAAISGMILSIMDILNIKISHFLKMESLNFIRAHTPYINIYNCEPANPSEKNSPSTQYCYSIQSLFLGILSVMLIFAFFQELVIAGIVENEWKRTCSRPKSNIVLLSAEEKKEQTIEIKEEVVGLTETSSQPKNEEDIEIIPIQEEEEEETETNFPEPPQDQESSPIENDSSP
Procedure: Non-treated, cells in culture medium; RTX-Cy5, Ramos cells (2×10^5) were treated with 1 μg RTX-Cy5 at 4° C. for 30 min; RTX Blocked+RTX-Cy5, after pre-blocking by 10 μg RTX at 4° C. for 30 min, 1 μg RTX-Cy5 was added and incubated at 4° C. for 30 min. The cells were analyzed by flow cytometry. Data are reported as MFI, mean fluorescence intensity.
To ensure CD-20 antigen expression on the surface of the Ramos cells used, the Ramos cells were exposed to RTX labeled with Cy5 (RTX-Cy5). […] This confirmed the expression of CD20 on the surface of the Ramos cells, and their specific binding affinity to RTX.

Q: What does the source list for Rituximab [RTX, reference compound]?
A: AUC (total area under the blood concentration versus time curve) [1]: 716.46 ± 66.64 % ID h/mL; change of apoptosis level on increase of antibody concentration from 0.2 μM to 2 μM [2]: did not significantly enhance the apoptosis level; also recorded: did not increase; cytotoxicity against Ramos cells (in words) ([3]; 0.15 μM): nearly undetectable; patients responding to RTX re-treatment [4]: 40%; level in the tumor [5]: 0.71 % ID/g tissue; antitumor effect (in words) [6]: marginal effects

Q: With COc1cccc2c1C(=O)c1c(O)c3c(c(O)c1C2=O)C[C@@](O)(C(=O)CO)C[C@@H]3O[C@H]1C[C@H](N)[C@@H](O)[C@H](C)O1 [EPI, epirubicin] as the compound, how does the terminal half-life [7] read?
A: 9 to 20 min

Q: And the “tumor size relative to baseline” value [8]?
A: 1772±840 % of the baseline

Q: For RTX-Cy5, which “Cy5 signal of Ramos cells incubated with RTX-Cy5” value ([9]; 1 μg RTX-Cy5, 4° C., 30 min) is on record?
A: high Cy5 signal

Q: What about the “Cy5 signal after CD20 receptors were blocked with over-saturation dose of RTX” value ([9]; pre-blocking by 10 μg RTX, then 1 μg RTX-Cy5) of the same compound?
A: no Cy5 signal detectable

Q: With “RTX-EPI: control conjugate in which EPI was directly attached to RTX via maleimide, EPI/RTX 3.1” as the compound, how does the “kill of Ramos cells” value ([3]; 0.15 μM (related to RTX)) read?
A: 18%

Q: What about the “antitumor effect (in words)” value [6] of the same compound?
A: marginal effects
